Measured values reported in the supplement of paper PMC10307832.

Experiments:
Assay in all cases: relative viability (nuclei count vs DMSO), 5 days (fraction); higher = more cells survive
[1] = tested on: ABC-1
Outline: (§1)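 One day after seeding in 1536-well plates, lung cancer cell lines were dosed by pin tool. Dosing was either single-drug or a fixed anchor-drug dose plus five library-drug doses (not always all listed) in √10 steps. After 5 days, nuclei were stained in one fix-and-stain step and counted on 4× images, and relative viability is the nuclei count of treated wells over that of vehicle wells, given as the median of duplicate plates.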

[2] = tested on: CAL-12T
Outline: as §1

[3] = tested on: HCC-366
Outline: as §1

[4] = tested on: HCC-78
Outline: as §1

[5] = tested on: LC-2-ad
Outline: as §1

[6] = tested on: LOU-NH91
Outline: as §1

[7] = tested on: LU99A
Outline: as §1

[8] = tested on: NCI-H1395
Outline: as §1

[9] = tested on: NCI-H1651
Outline: as §1

[10] = tested on: NCI-H1734
Outline: as §1

[11] = tested on: NCI-H1755
Outline: as §1

[12] = tested on: NCI-H1793
Outline: as §1

[13] = tested on: NCI-H1944
Outline: as §1

[14] = tested on: NCI-H2087
Outline: as §1

[15] = tested on: NCI-H2228
Outline: as §1

[16] = tested on: NCI-H2405
Outline: as §1

[17] = tested on: NCI-H3122
Outline: as §1

[18] = tested on: NCI-H460
Outline: as §1

[19] = tested on: PC-3 [JPC-3]
Outline: as §1

[20] = tested on: RERF-LC-KJ
Outline: as §1

[21] = tested on: UMC-11
Outline: as §1

## C=C1C(=O)O[C@@H](CCCCCCCC)[C@@H]1C(=O)O [C-75] + C[C@]1(O)C[C@@H](c2nc(-c3ccc4ccc(-c5ccccc5)nc4c3)c3c(N)nccn32)C1 [Linsitinib] (partner 1 µM)
[1]; first compound 0.08 µM
  relative viability: 0.85
[1]; first compound 0.253 µM
  relative viability: 0.854
[1]; first compound 0.8 µM
  relative viability: 0.705
[1]; first compound 2.53 µM
  relative viability: 0.764
[1]; first compound 8 µM
  relative viability: 0.552
[2]; first compound 0.08 µM
  relative viability: 0.814
[2]; first compound 0.253 µM
  relative viability: 1.02
[2]; first compound 0.8 µM
  relative viability: 0.751
[2]; first compound 2.53 µM
  relative viability: 0.701
[2]; first compound 8 µM
  relative viability: 0.792
[3]; first compound 0.08 µM
  relative viability: 0.629
[3]; first compound 0.253 µM
  relative viability: 0.645
[3]; first compound 0.8 µM
  relative viability: 0.558
[3]; first compound 8 µM
  relative viability: 0.258
[4]; first compound 0.08 µM
  relative viability: 0.642
[4]; first compound 0.253 µM
  relative viability: 0.443
[4]; first compound 0.8 µM
  relative viability: 0.493
[4]; first compound 2.53 µM
  relative viability: 0.437
[4]; first compound 8 µM
  relative viability: 0.522
[5]; first compound 0.08 µM
  relative viability: 0.869
[5]; first compound 0.253 µM
  relative viability: 0.865
[5]; first compound 0.8 µM
  relative viability: 0.798
[5]; first compound 8 µM
  relative viability: 0.855
[6]; first compound 0.08 µM
  relative viability: 1
[6]; first compound 0.253 µM
  relative viability: 0.82
[6]; first compound 0.8 µM
  relative viability: 0.875
[6]; first compound 2.53 µM
  relative viability: 0.859
[6]; first compound 8 µM
  relative viability: 1.02
[7]; first compound 0.08 µM
  relative viability: 0.571
[7]; first compound 0.253 µM
  relative viability: 0.598
[7]; first compound 0.8 µM
  relative viability: 0.528
[7]; first compound 2.53 µM
  relative viability: 0.412
[7]; first compound 8 µM
  relative viability: 0.464
[8]; first compound 0.08 µM
  relative viability: 1.11
[8]; first compound 0.253 µM
  relative viability: 1.05
[8]; first compound 0.8 µM
  relative viability: 1.12
[8]; first compound 2.53 µM
  relative viability: 1.11
[8]; first compound 8 µM
  relative viability: 1.25
[9]; first compound 0.08 µM
  relative viability: 1.06
[9]; first compound 0.253 µM
  relative viability: 1.07
[9]; first compound 0.8 µM
  relative viability: 1.08
[9]; first compound 2.53 µM
  relative viability: 0.975
[9]; first compound 8 µM
  relative viability: 0.964
[10]; first compound 0.08 µM
  relative viability: 0.876
[10]; first compound 0.253 µM
  relative viability: 0.813
[10]; first compound 0.8 µM
  relative viability: 0.804
[10]; first compound 2.53 µM
  relative viability: 0.622
[10]; first compound 8 µM
  relative viability: 0.732
[11]; first compound 0.08 µM
  relative viability: 0.946
[11]; first compound 0.253 µM
  relative viability: 0.887
[11]; first compound 0.8 µM
  relative viability: 0.98
[11]; first compound 2.53 µM
  relative viability: 0.775
[11]; first compound 8 µM
  relative viability: 1.01
[12]; first compound 0.08 µM
  relative viability: 0.775
[12]; first compound 0.253 µM
  relative viability: 1.18
[12]; first compound 0.8 µM
  relative viability: 0.698
[12]; first compound 2.53 µM
  relative viability: 0.658
[12]; first compound 8 µM
  relative viability: 0.942
[13]; first compound 0.08 µM
  relative viability: 1.13
[13]; first compound 0.253 µM
  relative viability: 0.961
[13]; first compound 0.8 µM
  relative viability: 1.26
[13]; first compound 8 µM
  relative viability: 1.19
[14]; first compound 0.08 µM
  relative viability: 1.24
[14]; first compound 0.253 µM
  relative viability: 0.898
[14]; first compound 0.8 µM
  relative viability: 0.975
[14]; first compound 2.53 µM
  relative viability: 0.867
[14]; first compound 8 µM
  relative viability: 1
[15]; first compound 0.08 µM
  relative viability: 1.03
[15]; first compound 0.253 µM
  relative viability: 1.04
[15]; first compound 0.8 µM
  relative viability: 0.543
[15]; first compound 2.53 µM
  relative viability: 0.594
[15]; first compound 8 µM
  relative viability: 0.66
[16]; first compound 0.08 µM
  relative viability: 0.882
[16]; first compound 0.253 µM
  relative viability: 0.728
[16]; first compound 0.8 µM
  relative viability: 0.872
[16]; first compound 2.53 µM
  relative viability: 0.967
[16]; first compound 8 µM
  relative viability: 0.989
[17]; first compound 0.08 µM
  relative viability: 1.02
[17]; first compound 0.253 µM
  relative viability: 1.06
[17]; first compound 0.8 µM
  relative viability: 1.04
[17]; first compound 8 µM
  relative viability: 1.1
[18]; first compound 0.08 µM
  relative viability: 0.718
[18]; first compound 0.253 µM
  relative viability: 0.823
[18]; first compound 0.8 µM
  relative viability: 0.72
[18]; first compound 8 µM
  relative viability: 0.582
[19]; first compound 0.08 µM
  relative viability: 0.939
[19]; first compound 0.253 µM
  relative viability: 0.933
[19]; first compound 0.8 µM
  relative viability: 0.951
[19]; first compound 2.53 µM
  relative viability: 1.02
[19]; first compound 8 µM
  relative viability: 1.09
[20]; first compound 0.08 µM
  relative viability: 0.912
[20]; first compound 0.253 µM
  relative viability: 0.994
[20]; first compound 0.8 µM
  relative viability: 0.827
[20]; first compound 2.53 µM
  relative viability: 0.739
[20]; first compound 8 µM
  relative viability: 0.971
[21]; first compound 0.08 µM
  relative viability: 0.91
[21]; first compound 0.253 µM
  relative viability: 1.09
[21]; first compound 0.8 µM
  relative viability: 1.01
[21]; first compound 2.53 µM
  relative viability: 0.821
[21]; first compound 8 µM
  relative viability: 0.891
